Patent publication US9695155B2, “Herbicidal substituted pyrimidinyloxy benzene compounds” (E. I. DU PONT DE NEMOURS AND COMPANY, priority 2013, dated 2017)

Key:
wild mustard = experiment: Test D preemergence; assay type: in vivo, Sinapis arvensis
Description: (§1) Seeds of plant species selected from bluegrass (annual bluegrass, Poa annua), blackgrass (Alopecurus myosuroides), canarygrass (littleseed canarygrass, Phalaris minor), chickweed (common chickweed, Stellaria media), galium (catchweed bedstraw, Galium aparine), bromegrass, downy (downy bromegrass, Bromus tectorum), field poppy (Papaver rhoeas), field violet (Viola arvensis), green foxtail (Setaria viridis), deadnettle (henbit deadnettle, Lamium amplexicaule), Italian ryegrass (Lolium multiflorum), kochia (Kochia scoparia), lambsquarters (Chenopodium album), oilseed rape (Brassica napus), pigweed (Amaranthus retroflexus), chamomile (scentless chamomile, Matricaria inodora), Russian thistle (Salsola kali), speedwell (bird's-eye speedwell, Veronica persica), spring barley (Hordeum vulgare), spring wheat (Triticum aestivum), wild buckwheat (Polygonum convolvulus), wild mustard (Sinapis arvensis), wild oat (Avena fatua), wild radish (Raphanus raphanistrum), windgrass (Apera spica-venti), winter barley (Hordeum vulgare), and winter wheat (Triticum aestivum) were planted into a silt loam soil and treated preemergence with test chemicals formulated in a non-phytotoxic solvent mixture which included a surfactant.
(§2) At the same time, these species were planted in pots containing Redi-Earth® planting medium (Scotts Company, 14111 Scottslawn Road, Marysville, Ohio 43041) comprising spaghnum peat moss, vermiculite, wetting agent and starter nutrients and treated with postemergence applications of the test chemicals formulated in the same manner. Plants ranged in height from 2 to 18 cm (1- to 4-leaf stage). Treated plants and controls were maintained in a controlled growth environment for 7 to 21 days after which time all species were compared to controls and visually evaluated. Plant response ratings, summarized in Table D, are based on a scale of 0 to 100 where 0 is no effect and 100 is complete control. A dash (-) response means no test result.

lambsquarters = experiment: Test D preemergence; assay type: in vivo, Chenopodium album
Description: as §1, §2

speedwell = experiment: Test D postemergence; assay type: in vivo, Veronica persica
Description: as §1, §2

galium = experiment: Test D preemergence; assay type: in vivo, Galium aparine
Description: as §1, §2

kochia = experiment: Test D postemergence; assay type: in vivo, Kochia scoparia
Description: as §1, §2

windgrass = experiment: Test D preemergence; assay type: in vivo, Apera spica-venti
Description: as §1, §2

spring wheat = experiment: Test D postemergence; assay type: in vivo, Triticum aestivum
Description: as §1, §2

winter wheat = experiment: Test D postemergence; assay type: in vivo, Triticum aestivum
Description: as §1, §2

canarygrass = experiment: Test D preemergence; assay type: in vivo, Phalaris minor
Description: as §1, §2

bromegrass, downy = experiment: Test D preemergence; assay type: in vivo, Bromus tectorum
Description: as §1, §2

[1] = 31 g ai/ha, scale 0 (no effect) to 100 (complete control)
[2] = 62 g ai/ha, scale 0 to 100 (0 no effect, 100 complete control)
[3] = 125 g ai/ha, scale 0 to 100 (0 no effect, 100 complete control)
[4] = 250 g ai/ha, scale 0 to 100 (0 no effect, 100 complete control)

N#Cc1cccc(Oc2ncc(Cl)cn2)c1-n1cc(-n2ccc(C(F)(F)F)n2)cn1 [Compound 284]
Plant response rating, Mustard, Wild (wild mustard; [1]): 15
Plant response rating, Mustard, Wild (wild mustard; 62 g ai/ha, scale 0-100): 15
Plant response rating, Mustard, Wild (wild mustard; 125 g ai/ha, scale 0-100): 90
Plant response rating, Mustard, Wild (wild mustard; 250 g ai/ha, scale 0-100): 100
Plant response rating, Lambsquarters (lambsquarters; [1]): 30
Plant response rating, Lambsquarters (lambsquarters; 62 g ai/ha, scale 0-100): 100
Plant response rating, Lambsquarters (lambsquarters; 125 g ai/ha, scale 0-100): 100
Plant response rating, Lambsquarters (lambsquarters; 250 g ai/ha, scale 0-100): 100
Plant response rating, Speedwell (speedwell; 31 g ai/ha, scale 0-100): 70
Plant response rating, Speedwell (speedwell; [2]): 75
Plant response rating, Speedwell (speedwell; [3]): 100
Plant response rating, Speedwell (speedwell; [4]): 100
Plant response rating, Galium (galium; [1]): 20
Plant response rating, Galium (galium; 62 g ai/ha, scale 0-100): 20
Plant response rating, Galium (galium; 125 g ai/ha, scale 0-100): 20
Plant response rating, Galium (galium; 250 g ai/ha, scale 0-100): 25
Plant response rating, Kochia (kochia; 31 g ai/ha, scale 0-100): 100
Plant response rating, Kochia (kochia; [2]): 100
Plant response rating, Kochia (kochia; [3]): 100
Plant response rating, Kochia (kochia; [4]): 100
Plant response rating, Windgrass (windgrass; [1]): 20
Plant response rating, Windgrass (windgrass; 125 g ai/ha, scale 0-100): 45
Plant response rating, Windgrass (windgrass; 250 g ai/ha, scale 0-100): 55
Plant response rating, Wheat, Spring (spring wheat; 31 g ai/ha, scale 0-100): 15
Plant response rating, Wheat, Spring (spring wheat; [2]): 25
Plant response rating, Wheat, Spring (spring wheat; [3]): 30
Plant response rating, Wheat, Spring (spring wheat; [4]): 35
Plant response rating, Wheat, Winter (winter wheat; 31 g ai/ha, scale 0-100): 10
Plant response rating, Wheat, Winter (winter wheat; [2]): 25
Plant response rating, Wheat, Winter (winter wheat; [3]): 20
Plant response rating, Wheat, Winter (winter wheat; [4]): 25
Plant response rating, Canarygrass (canarygrass; [1]): 30
Plant response rating, Canarygrass (canarygrass; 62 g ai/ha, scale 0-100): 25
Plant response rating, Canarygrass (canarygrass; 125 g ai/ha, scale 0-100): 35
Plant response rating, Canarygrass (canarygrass; 250 g ai/ha, scale 0-100): 60
Plant response rating, Bromegrass, Downy (bromegrass, downy; [1]): 0
Plant response rating, Bromegrass, Downy (bromegrass, downy; 62 g ai/ha, scale 0-100): 0
Plant response rating, Bromegrass, Downy (bromegrass, downy; 125 g ai/ha, scale 0-100): 0
Plant response rating, Bromegrass, Downy (bromegrass, downy; 250 g ai/ha, scale 0-100): 10
